In patent publication US20060134738A1, “Gene expression inducing fusion protein and method for controlling gene expression Induction” (priority 2003, published 2006):

Experiments:
Assay type in all cases: cell-based
[1] = test system: translation of the second cistron (LucF/LucR ratio), SKHep-1 human hepatoma cells; experiment: LucF/LucR translation induction in transiently transfected SKHep-1 cells (FIG. 1); conditions: inhibitor 15 μM, 1 to 8 hours
Text: 1. “Reporter” plasmids that make it possible to transcribe, in the cells, a bicistronic RNA encoding the LucR (Renilla luciferase) reporter protein in the first cistron and the LucF (firefly luciferase) reporter protein in the second cistron. The plasmids pCRL30-R17 or pCRL138-R17 also contain, in the intercistron space of the mRNA, a binding site for the capsid protein of the R17 bacteriophage (plasmid).
2. Effector plasmids which will be able to express, in the cells: • a fusion protein consisting of the R17 phage capsid protein fused with the C-terminal region of the eIF4G translation initiation factor, for the plasmid pCI R17-4G, • a fusion protein consisting of the R17 phage capsid protein fused with the C-terminal region of the eIF4G translation initiation factor and a farnesylation protein domain (of protein sequence CVLS), for the plasmid pCI R17-4G-CVLS.
The procedure is carried out in the following way. SKHep-1 human hepatoma cells are transiently transfected with cationic liposomes using 10 pmol of reporter plasmids and 5 pmol of activator plasmids per 1 million cells. […]
After lysis of the cells, the LucR and LucF activities are assayed using the “Dual-Luciferase (TM) reporter system” kit (Promega E1980) on a Berthold LB96B luminescence device. […]

[2] = test system: p27Kip1 protein expression in CHO (Chinese hamster ovary) cells; experiment: p27 expression by Western blotting in cotransfected CHO cells (FIG. 7); conditions: 8 hours
Text: The reporter plasmid constructed in the context of this example makes it possible to transcribe, in mammalian cells in culture ex vivo, a bicistronic RNA encoding a truncated H2-Kk protein (mouse MHC class I molecule) as a marker for selection of the transfected cells, and encoding the p27Kip1 protein which is a cell cycle-inhibiting protein. The bicistronic RNA also contains, in the intercistron space, a binding site for the R17 bacteriophage capsid protein. This bicistronic RNA is very diagrammatically represented in FIG. 7.
The effector plasmid used is the one for expressing the R17-4G-CVLS fusion protein.
CHO (Chinese hamster ovary) cells are transiently transfected with cationic liposomes using 10 pmol of reporter plasmids and 5 pmol of activator plasmids per 1 million cells. Twelve hours after transfection, the cells are treated for 8 hours with the farnesyltransferase inhibitor (Cys-Val-3(2-naphthyl)Ala-Met; Sigma C4433) at a final concentration of 1 μM in the culture medium. […]
The expression of the p27 protein (ap27 line) is examined by Western blotting with a monoclonal antibody (Ref. 610241, BD Bioscience Pharmingen). The expression of the R17-4G-CVLS fusion protein (aHA line) is detected by Western blotting using a monoclonal antibody against the HA peptide (Eurogentec) located at the NH2-terminal end of the R17-4G-CVLS protein. […]

[3] = test system: Farnesyl Pyrophosphate Synthase, also called FPP-synthase; experiment: LucF/LucR ratio in HeLa cells stably transfected with R17-4G-CVLS, FPP-synthase inhibitors (FIG. 4); conditions: HeLa stably R17-4G-CVLS
Text: This enzyme is required for the biosynthesis of farnesyl pyrophosphates.
In these tests represented in FIG. 4, the same cellular model as in b), stably transfected with R17-4G-CVLS, is used.

HMGCoA-reductase = experiment: LucF/LucR ratio in HeLa cells stably transfected with R17-4G-CVLS, screening of HMGCoA-reductase inhibitors (FIG. 3); conditions: for HMGCoA-reductase inhibiting activity (LucF/LucR ratio relative to a DMSO control): HeLa stably R17-4G-CVLS, reporters pCRL138 and pCRL138-R17, FIG. 3; for effect of mevalonate on the inhibitory activity (LucF/LucR ratio): in the presence of mevalonate, FIG. 3
Text: HMGCoA-reductase, which synthesizes melavonate, is involved in isoprenylation, a post-translational modification of proteins such as 4G-CVLS.
In FIG. 3, the cells used during these tests are HeLa cells stably transfected with the plasmid encoding the R17-4G-CVLS fusion protein, and transiently transfected with the bicistronic reporter plasmids pCRL138 and pCRL138-R17.
The results are given in the form of the ratio of LucF/LucR activity in the presence of various pharmacological agents in the culture medium, relative to a DMSO control.
The model used also made it possible to screen potential HMGCoA-reductase inhibiting agents.

[4] = test system: farnesylation of R17-4G-CVLS; experiment: LucF/LucR induction in HeLa clone with integrated R17-4G-CVLS, prenyltransferase inhibitors (FIG. 2A, 2B); conditions: for induction (quotient of LucF and LucR relative to the DMSO control): reporters pCRL138 and pCRL138-R17, FIG. 2A
Protocol: The nucleic acid encoding the R17-4G-CVLS protein is integrated into the genome of HeLa cells. The reporter plasmids pCRL138 and pCRL138-R17 are transiently transfected into this clone. The products that act on farnesylation of R17-4G-CVLS are then sought.
DMSO is the solvent in which the products (FTI 277 and GGTI 298) that are added to the culture medium are dissolved, and therefore represents an induction control.
The white rectangles represent the RNA which carries the R17 protein recognition sequence. The black rectangles represent the activities obtained under the same conditions with an RNA sequence that is similar but no longer carries the R17 recognition; it is therefore the negative control for the first construct.
The induction is represented by the quotient of the LucF and LucR values measured directly in the presence of an agent (FTI 277 or GGTI 298), relative to the DMSO control.

[5] = test system: R17-4G-CAAX constructs (CVLS, CVLL, SVLS) in HeLa cells; experiment: Translation activation in HeLa clones with integrated reporter, transiently transfected with R17-4G-CAAX constructs (FIG. 5); conditions: for activation of translation relative to the DMSO controls, R17-4G-SVLS: construct neither farnesylated nor geranylated; for activation of translation relative to the DMSO controls, R17-4G-CVLS: construct with farnesylations box; for activation of translation relative to the DMSO controls, R17-4G-CVLL: construct with geranylations box
Protocol: The pCRL138 or pCRL138-R17 reporter sequences are integrated into the genome of HeLa cells, and various R17-4G-CAAX constructs—where CAAX can be farnesylated, “CVLS”, or geranylgeranylated, “CVLL”, or no longer undergo any post-translational modifications of this type, “SVLS”,—are transiently transfected into these two clones.
After transfection, the cells are treated with FTI 277 (farnesyltransferase inhibitor) or GGTI 298 (geranyltransferase inhibitor).

[6] = test system: proteins containing CVLS, CVLL or SVLS boxes in HeLa cells; experiment: Subcellular localization of fusion proteins by fluorescence microscopy (FIGS. 6A and B); conditions: treatment 8 hours, immunofluorescence with anti-HA antibody
Text: Moreover, the subcellular localization of proteins containing CVLS, CVLL or SVLS boxes was verified.
To do this, these boxes were fused with the YFP protein (yellow fluorescent protein), and all the fusion proteins were cloned with an HA sequence in the N-terminal position. The constructs were transiently transfected into HeLa cells, and the localization of the fusion proteins was followed by fluorescence microscopy after immunofluorescence with an anti-HA antibody (FIGS. 6A and B, in color).

induction (quotient of LucF and LucR relative to the DMSO control) ([4]; HeLa, integrated R17-4G-CVLS)	Compound	HMGCoA-reductase inhibiting activity (LucF/LucR ratio relative to a DMSO control) (HMGCoA-reductase)	effect of mevalonate on the inhibitory activity (LucF/LucR ratio) (HMGCoA-reductase)	activation of translation relative to the DMSO controls, R17-4G-SVLS [5]	activation of translation relative to the DMSO controls, R17-4G-CVLS [5]	activation of translation relative to the DMSO controls, R17-4G-CVLL [5]	also measured
	Cys-Val-3(2-naphthyl)Ala-Met [farnesyltransferase inhibitor]						level of translation induced by the expression of the R17-4G fusion protein under inhibitor treatment (LucF/LucR ratio) ([1]; SKHep-1, effector pCI R17-4G): not modulated; increase in translation induced by the R17-4G-CAAX inducer fusion protein under inhibitor treatment (LucF/LucR ratio) ([1]; SKHep-1, effector pCI R17-4G-CVLS): dependent on the time of treatment; amount of p27 (Western blotting) ([2]; CHO cotransfected with pR17-4G-CVLS and pK-R17-p27, inhibitor 1 μM): An increase in the amount of p27; amount of fusion protein produced (Western blotting, anti-HA) ([2]; CHO cotransfected, with or without inhibitor 1 μM): identical with or without treatment with the inhibitor
	CC/C(=C(\c1ccccc1)c1ccc(OCCN(C)C)cc1)c1ccccc1 [tamoxifen]	inhibits this enzyme even at low concentrations	reversed or compensated for by mevalonate				farnesylation / FPP-synthase inhibition (LucF/LucR ratio) [3]: is also an FPP-synthase inhibitor
has an inducer effect	COC(=O)[C@H](CCSC)NC(=O)c1ccc(NC[C@@H](N)CS)cc1-c1ccccc1 [FTI 277]			neither of the two molecules is capable of activation	capable of activating translation	only GGTI 298 is capable of activating translation	treatment time at which the maximum activation effect is obtained ([4]; HeLa, integrated R17-4G-CVLS, kinetics FIG. 2A): 8 h; reversibility of the activation effect (LucF/LucR activation ratio after removal of the product) ([4]; cells treated for 8 h with 1 μM, then product removed, FIG. 2B): reversible; relocalization of fusion proteins to the cytoplasm [6]: relocalizes only the YFP-CVLS and R17-4G-CVLS proteins to the cytoplasm
	c1ccc(Cc2ccc(OCCN3CCCC3)cc2)cc1 [PBPE]	found to be an inhibitor of HMGCOA-reductase	compensated for by the presence of mevalonate				
has no activation effect	COC(=O)[C@H](CC(C)C)NC(=O)c1ccc(NC[C@@H](N)CS)cc1-c1cccc2ccccc12 [GGTI 298]			neither of the two molecules is capable of activation	only FTI 277 is capable of activating translation	capable of activating translation	
